Data: patent publication US20260258064A1 (SIRONAX LTD., priority 2023, published 2026)

molecular target: T1, SARM1 (50-724) (Homo sapiens, UniProt Q6SZW1); test: SARM1 (50-724) enzymatic assay (LC-MS/MS); assay type: biochemical; conditions: Purified SARM1 (50-724) 2 nM, NMN as activator, NAD+ as substrate, 1 h at room temperature, read-out: IC50 (SARM1 inhibitory activity)
T1 construct: Purified SARM1 (50-724) with a final concentration of 2 nM was pre-incubated with a test compound
T1 sequence (Q6SZW1 50-724): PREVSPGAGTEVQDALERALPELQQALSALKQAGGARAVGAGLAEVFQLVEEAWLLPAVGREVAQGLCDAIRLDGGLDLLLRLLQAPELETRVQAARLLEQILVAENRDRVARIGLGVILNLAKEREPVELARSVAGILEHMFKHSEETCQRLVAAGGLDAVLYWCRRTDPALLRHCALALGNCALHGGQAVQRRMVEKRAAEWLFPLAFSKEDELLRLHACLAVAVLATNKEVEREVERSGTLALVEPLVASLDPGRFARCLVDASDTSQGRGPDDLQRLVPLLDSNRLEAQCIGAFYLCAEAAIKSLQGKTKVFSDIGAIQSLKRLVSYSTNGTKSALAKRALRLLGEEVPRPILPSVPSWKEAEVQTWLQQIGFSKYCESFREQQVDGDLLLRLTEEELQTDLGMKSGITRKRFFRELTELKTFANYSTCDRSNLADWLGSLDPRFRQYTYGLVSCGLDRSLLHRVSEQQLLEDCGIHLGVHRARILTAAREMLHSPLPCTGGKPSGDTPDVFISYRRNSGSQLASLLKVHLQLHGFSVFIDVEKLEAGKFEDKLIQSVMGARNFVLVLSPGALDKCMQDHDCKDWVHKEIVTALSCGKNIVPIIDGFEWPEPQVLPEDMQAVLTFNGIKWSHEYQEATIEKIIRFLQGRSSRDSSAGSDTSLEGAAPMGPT
How it was run: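 Reaction buffer was Dulbecco's PBS. Compound and 2 nM human SARM1 (50-724) were pre-incubated 15 min at room temperature, then […] NAD^+ and 200 µM NMN activator were added for 1 h at room temperature. Acetonitrile (70%) stop, LC-MS/MS read-out, IC50 values.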

Question: How did the IC50 turn out when `Fc1cc(CC(F)(F)F)cc2nc(-c3nncn3-c3cnccc3C(F)(F)F)[nH]c12` [Compound 282, 7-fluoro-5-(2,2,2-trifluoroethyl)-2-(4-(4-(trifluoromethyl)pyridin-3-yl)-4H-1,2,4-triazol-3-yl)-1H-benzo[d]imidazole] was run?
Answer: Its IC50 is no more than 100 nM.

Question: For `CS(=O)(=O)c1cccc(-n2cnnc2-c2nc3cc(C(F)(F)F)ccc3[nH]2)c1` [Example 52], which IC50 is on record?
Answer: Its IC50 is greater than 1000 nM.

Question: With `FC(F)(F)c1ccc2[nH]c(-c3cncn3-c3cccc(Cl)c3Cl)nc2c1` [Example 45, 2-(1-(2,3-dichlorophenyl)-1H-imidazol-5-yl)-5-(trifluoromethyl)-1H-benzo[d]imidazole] as the molecule, how does the IC50 read?
Answer: The IC50 was no more than 100 nM.

Question: `[2H]C([2H])([2H])N(c1cc(F)c2[nH]c(-c3nncn3-c3cnccc3C(F)(F)F)nc2c1)C([2H])([2H])[2H]` [Compound 403, 7-fluoro-N,N-bis(methyl-d3)-2-(4-(4-(trifluoromethyl)pyridin-3-yl)-4H-1,2,4-triazol-3-yl)-1H-benzo[d]imidazol-5-amine] was tested. Which IC50 did it give?
Answer: The IC50 was no more than 100 nM.

Question: How did the IC50 turn out when `FC(F)(F)c1ccc2[nH]c([C@H]3COC[C@H]3c3ccccc3)nc2c1` (single isomer, unassigned) [Compound 351] was run?
Answer: Its IC50 is greater than 1000 nM.

Question: `O=c1[nH]ccc(-c2cccc(Cl)c2Cl)c1-c1nc2cc(C(F)(F)F)ccc2[nH]1` [Example 35] was tested. Which IC50 did it give?
Answer: Its IC50 is 100 to 500 nM.

Question: How did the IC50 turn out when `Fc1cc(C2CC2(F)F)cc2nc(-c3nncn3-c3cnccc3C(F)(F)F)[nH]c12` (stereo not drawn) [Compound 298, 5-(2,2-difluorocyclopropyl)-7-fluoro-2-(4-(4-(trifluoromethyl)pyridin-3-yl)-4H-1,2,4-triazol-3-yl)-1H-benzo[d]imidazole] was run?
Answer: Its IC50 is no more than 100 nM.

Question: With `O=C1CN(c2nc3cc(C(F)(F)F)ccc3[nH]2)C(c2ccccc2)CN1` (stereo not drawn) [Compound 368, 5-phenyl-4-(5-(trifluoromethyl)-1H-benzo[d]imidazol-2-yl)piperazin-2-one] as the molecule, how does the IC50 read?
Answer: The IC50 was greater than 1000 nM.

Question: With `FC(F)(F)Oc1cccnc1-n1cnnc1-c1nc2cc(C(F)(F)F)ccc2[nH]1` [Compound 177] as the molecule, how does the IC50 read?
Answer: Its IC50 is no more than 100 nM.

Question: For `FC(F)(F)c1ccc2[nH]c(-c3cccn3-c3nnccc3C(F)(F)F)nc2c1` [Compound 305, 5-(Trifluoromethyl)-2-(1-(4-(trifluoromethyl)pyridazin-3-yl)-1H-pyrrol-2-yl)-1H-benzo[d]imidazole], which IC50 is on record?
Answer: Its IC50 is no more than 100 nM.

Question: For `Clc1cccc(-n2cnnc2-c2nc3cc(-c4cncs4)ccc3[nH]2)c1Cl` [Example 78, 5-(2-(4-(2,3-dichlorophenyl)-4H-1,2,4-triazol-3-yl)-1H-benzo[d]imidazol-5-yl)thiazole], which IC50 is on record?
Answer: Its IC50 is 100 to 500 nM.

Question: Which IC50 does the source give for `CS(=O)(=O)Cc1c(-c2nncn2-c2cnccc2C(F)(F)F)[nH]c2ccc(C(F)(F)F)cc12` [Compound 385, 3-(methylsulfonylmethyl)-5-(trifluoromethyl)-2-[4-[4-(trifluoromethyl)-3-pyridyl]-1,2,4-triazol-3-yl]-1H-indole] here?
Answer: Its IC50 is no more than 100 nM.

Question: For `CC(F)(F)c1ccncc1-n1cnnc1-c1nc2cc(C(F)(F)F)ccc2[nH]1` [Compound 260, 2-(4-(4-(1,1-Difluoroethyl)pyridin-3-yl)-4H-1,2,4-triazol-3-yl)-5-(trifluoromethyl)-1H-benzo[d]imidazole], which IC50 is on record?
Answer: The IC50 was no more than 100 nM.

Question: Which IC50 does the source give for `CCn1ccc2[nH]c(-c3nncn3-c3cccc(F)c3Cl)cc2c1=O` [Compound 308, 2-(4-(2-chloro-3-fluorophenyl)-4H-1,2,4-triazol-3-yl)-5-ethyl-1,5-dihydro-4H-pyrrolo[3,2-c]pyridin-4-one] here?
Answer: The IC50 was 100 to 500 nM.

Question: Which IC50 does the source give for `[O-][S+]1CCN(c2ccccc2)C(c2nc3cc(C(F)(F)F)ccc3[nH]2)C1` (stereo not drawn) [Compound 325, 4-phenyl-3-(5-(trifluoromethyl)-1H-benzo[d]imidazole-2-yl)thiomorpholine 1-oxide] here?
Answer: Its IC50 is greater than 1000 nM.

Question: For `Fc1cccc(-n2c(CN3CC4(CCO4)C3)nnc2-c2nc3cc(C(F)(F)F)ccc3[nH]2)c1Cl` [Compound 398, 6-((4-(2-chloro-3-fluorophenyl)-5-(6-(trifluoromethyl)-1H-benzo[d]imidazol-2-yl)-4H-1,2,4-triazol-3-yl)methyl)-1-oxa-6-azaspiro[3.3]heptane], which IC50 is on record?
Answer: Its IC50 is no more than 100 nM.

Question: `Fc1cc(C23COCC2C3)cc2nc(-c3nncn3-c3cnccc3C(F)(F)F)[nH]c12` (stereo not drawn) [Compound 374] was tested. Which IC50 did it give?
Answer: The IC50 was no more than 100 nM.

Question: Which IC50 does the source give for `CC(Oc1cc(F)c2[nH]c(-c3nncn3-c3cnccc3C(F)(F)F)nc2c1)C(F)(F)F` (stereo not drawn) [Compound 355, 7-fluoro-2-(4-(4-(trifluoromethyl)pyridin-3-yl)-4H-1,2,4-triazol-3-yl)-5-((1,1,1-trifluoropropan-2-yl)oxy)-1H-benzo[d]imidazole] here?
Answer: The IC50 was no more than 100 nM.

Question: For `O=C1CCCN1c1c(-c2nncn2-c2cnccc2C(F)(F)F)[nH]c2ccc(C(F)(F)F)cc12` [Compound 367, 1-(5-(trifluoromethyl)-2-(4-(4-(trifluoromethyl)pyridin-3-yl)-4H-1,2,4-triazol-3-yl)-1H-indol-3-yl)pyrrolidin-2-one], which IC50 is on record?
Answer: The IC50 was greater than 1000 nM.

Question: How did the IC50 turn out when `[2H]c1nnc(-c2nc3cc(C4([2H])CC4)cc(F)c3[nH]2)n1-c1cnccc1C(F)(F)F` [Compound 359, 5-(cyclopropyl-1-d)-7-fluoro-2-(4-(4-(trifluoromethyl)pyridin-3-yl)-4H-1,2,4-triazol-3-yl-5-d)-1H-benzo[d]imidazole] was run?
Answer: Its IC50 is no more than 100 nM.

Question: Which IC50 does the source give for `CS(=O)(=O)Cc1nnc(-c2nc3c(F)c(C(F)(F)F)ccc3[nH]2)n1-c1cccc(F)c1Cl` (single isomer, unassigned) [Compound 197, 2-(4-(2-chloro-3-fluorophenyl)-5-((methylsulfonyl)methyl)-4H-1,2,4-triazol-3-yl)-4-fluoro-5-(trifluoromethyl)-1H-benzo[d]imidazole] here?
Answer: Its IC50 is no more than 100 nM.

Question: How did the IC50 turn out when `CC(c1cc(F)c2[nH]c(-c3nncn3-c3cnccc3C(F)(F)F)nc2c1)c1nccs1` (single isomer, unassigned) [Compound 434, 2-(1-(7-fluoro-2-(4-(4-(trifluoromethyl)pyridin-3-yl)-4H-1,2,4-triazol-3-yl)-1H-benzo[d]imidazol-5-yl)ethyl)thiazole] was run?
Answer: Its IC50 is no more than 100 nM.

Question: Which IC50 does the source give for `Cn1nc(-n2cnnc2-c2nc3cc(C(F)(F)F)ccc3[nH]2)c(Cl)c1Cl` [Example 53, 2-(4-(4,5-Dichloro-1-methyl-1H-pyrazol-3-yl)-4H-1,2,4-triazol-3-yl)-5-(trifluoromethyl)-1H-benzo[d]imidazole] here?
Answer: Its IC50 is no more than 100 nM.

Question: `FC(F)(F)c1ccc2[nH]c(-c3nnc(OC4CSC4)n3-c3cccc(Cl)c3Cl)nc2c1` [Compound 131] was tested. Which IC50 did it give?
Answer: Its IC50 is greater than 1000 nM.

Question: How did the IC50 turn out when `Cc1ccc2[nH]c(-c3c(-c4cccc(Cl)c4Cl)cnn3C)nc2c1` [Example 34] was run?
Answer: The IC50 was greater than 1000 nM.

Question: How did the IC50 turn out when `FC(F)(F)c1ccc2[nH]c(-c3nnc(CN4CCC4)n3-c3cccc(Cl)c3Cl)nc2c1` [Example 125] was run?
Answer: The IC50 was no more than 100 nM.

Question: `Fc1ccc(OC(F)(F)F)c(-n2cnnc2-c2nc3cc(C(F)(F)F)cc(F)c3[nH]2)c1` [Compound 213, 7-fluoro-2-(4-(5-fluoro-2-(trifluoromethoxy)phenyl)-4H-1,2,4-triazol-3-yl)-5-(trifluoromethyl)-1H-benzo[d]imidazole] was tested. Which IC50 did it give?
Answer: Its IC50 is no more than 100 nM.

Question: For `OC1CN(Cc2nnc(-c3nc4cc(C(F)(F)F)ccc4[nH]3)n2-c2cccc(Cl)c2Cl)C1` [Compound 144, 1-((4-(2,3-dichlorophenyl)-5-(5-(trifluoromethyl)-1H-benzo[d]imidazol-2-yl)-4H-1,2,4-triazol-3-yl)methyl)azetidin-3-ol], which IC50 is on record?
Answer: The IC50 was no more than 100 nM.

Question: For `CSc1c(Br)ccc2[nH]c(-c3nncn3-c3cccc(Cl)c3Cl)nc12` [Example 72, 5-bromo-2-(4-(2,3-dichlorophenyl)-4H-1,2,4-triazol-3-yl)-4-(methylthio)-1H-benzo[d]imidazole], which IC50 is on record?
Answer: The IC50 was 100 to 500 nM.

Question: `CC1(c2ccc3[nH]c(-c4nncn4-c4cccc(F)c4Cl)nc3c2)CC(O)C1` (stereo not drawn) [Compound 191, 3-(2-(4-(2-chloro-3-fluorophenyl)-4H-1,2,4-triazol-3-yl)-1H-benzo[d]imidazol-5-yl)-3-methylcyclobutan-1-ol] was tested. Which IC50 did it give?
Answer: The IC50 was no more than 100 nM.

Question: How did the IC50 turn out when `FC(F)(F)c1ccc2[nH]c(-c3c[nH]nc3-c3cccc(Cl)c3Cl)nc2c1` [Example 61] was run?
Answer: Its IC50 is 500 to 1000 nM.

Question: With `FC(F)(F)Oc1ccccc1-n1cnnc1-c1nc2cc(C(F)(F)F)ccc2[nH]1` [Compound 160] as the molecule, how does the IC50 read?
Answer: Its IC50 is no more than 100 nM.

Question: Which IC50 does the source give for `O=C1OCC(c2nc3cc(C(F)(F)F)ccc3[nH]2)=C1c1cccc(Cl)c1Cl` [Compound 25, 3-(2,3-Dichlorophenyl)-4-(5-(trifluoromethyl)-1H-benzo[d]imidazol-2-yl)furan-2(5H)-one] here?
Answer: Its IC50 is greater than 1000 nM.

Question: How did the IC50 turn out when `Cc1nccc(C(F)(F)F)c1-n1cnnc1-c1nc2cc(C(F)(F)F)ccc2[nH]1` [Compound 246, 2-(4-(2-methyl-4-(trifluoromethyl)pyridin-3-yl)-4H-1,2,4-triazol-3-yl)-5-(trifluoromethyl)-1H-benzo[d]imidazole] was run?
Answer: The IC50 was no more than 100 nM.

Question: For `FC(F)(F)c1ccc2[nH]c(-c3nccnc3-c3cccc(Cl)c3Cl)nc2c1` [Compound 304, 2-(3-(2,3-dichlorophenyl)pyrazin-2-yl)-5-(trifluoromethyl)-1H-benzo[d]imidazole], which IC50 is on record?
Answer: Its IC50 is 500 to 1000 nM.

Question: Which IC50 does the source give for `OCc1nnc(-c2nc3cc(C(F)(F)F)ccc3[nH]2)n1-c1cccc(Cl)c1Cl` [Example 90] here?
Answer: Its IC50 is no more than 100 nM.
